From ChEMBL document CHEMBL5113469, “Synthesis and biological evaluation of a tumor-selective degrader of PARP1” (Bioorg Med Chem, 2022)
Activity calls are given as the source filed them. No cut-off for these calls is given here.

Key:
[1] = test system: MDA-MB-231; assay: Antiproliferative activity against human MDA-MB-231 cells assessed as cell growth inhibition incubated for 5 days by MTT assay; type: functional, cell-based; conditions: MDA-MB-231, 120 h
[2] = test system: CAPAN-1; assay: Antiproliferative activity against human CAPAN-1 cells assessed as cell growth inhibition incubated for 5 days by MTT assay; type: functional, cell-based; conditions: CAPAN-1, 120 h
[3] = test system: MDA-MB-468; assay: Antiproliferative activity against human MDA-MB-468 cells assessed as cell growth inhibition incubated for 5 days by MTT assay; type: functional, cell-based; conditions: MDA-MB-468, 120 h
[4] = test system: MDA-MB-436; assay: Antiproliferative activity against human MDA-MB-436 cells assessed as cell growth inhibition incubated for 5 days by MTT assay; type: functional, cell-based; conditions: MDA-MB-436, 120 h
[5] = target: T1, Protein cereblon/Poly [ADP-ribose] polymerase 1 (Homo sapiens, UniProt P09874+Q96SW2); assay: PROTAC activity at CRBN/PARP1 in human MDA-MB-231 cells assessed as induction of PARP1 degradation at 1 uM incubated for 24 hrs by western blot analysis; type: cell-based
Target sequence in this assay (P09874 2-1014 limits assumed): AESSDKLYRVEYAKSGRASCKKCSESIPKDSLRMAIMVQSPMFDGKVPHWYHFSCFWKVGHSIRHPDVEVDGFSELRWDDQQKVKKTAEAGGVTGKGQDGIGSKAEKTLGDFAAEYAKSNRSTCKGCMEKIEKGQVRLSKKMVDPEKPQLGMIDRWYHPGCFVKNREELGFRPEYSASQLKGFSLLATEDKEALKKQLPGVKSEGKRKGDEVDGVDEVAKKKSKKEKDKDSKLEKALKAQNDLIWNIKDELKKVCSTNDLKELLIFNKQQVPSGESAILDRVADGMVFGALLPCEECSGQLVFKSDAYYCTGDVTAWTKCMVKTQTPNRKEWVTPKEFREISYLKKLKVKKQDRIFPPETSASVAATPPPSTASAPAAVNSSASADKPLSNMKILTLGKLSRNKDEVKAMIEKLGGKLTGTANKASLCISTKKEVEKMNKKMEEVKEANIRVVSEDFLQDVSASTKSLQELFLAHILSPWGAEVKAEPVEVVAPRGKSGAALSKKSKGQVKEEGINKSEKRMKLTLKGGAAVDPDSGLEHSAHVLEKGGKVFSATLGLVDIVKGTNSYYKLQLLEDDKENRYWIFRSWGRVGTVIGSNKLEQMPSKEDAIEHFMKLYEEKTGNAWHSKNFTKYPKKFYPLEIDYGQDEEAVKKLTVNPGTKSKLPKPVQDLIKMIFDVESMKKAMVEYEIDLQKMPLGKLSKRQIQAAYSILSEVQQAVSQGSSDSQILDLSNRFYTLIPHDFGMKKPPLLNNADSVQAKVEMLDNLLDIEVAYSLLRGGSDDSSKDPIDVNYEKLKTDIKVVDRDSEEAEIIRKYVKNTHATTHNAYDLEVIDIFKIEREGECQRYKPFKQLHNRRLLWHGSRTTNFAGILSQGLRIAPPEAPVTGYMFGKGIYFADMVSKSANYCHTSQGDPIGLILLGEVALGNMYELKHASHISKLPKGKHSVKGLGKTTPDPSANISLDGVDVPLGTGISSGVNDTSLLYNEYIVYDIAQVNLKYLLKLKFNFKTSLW
Target sequence in this assay (Q96SW2 whole entry partner): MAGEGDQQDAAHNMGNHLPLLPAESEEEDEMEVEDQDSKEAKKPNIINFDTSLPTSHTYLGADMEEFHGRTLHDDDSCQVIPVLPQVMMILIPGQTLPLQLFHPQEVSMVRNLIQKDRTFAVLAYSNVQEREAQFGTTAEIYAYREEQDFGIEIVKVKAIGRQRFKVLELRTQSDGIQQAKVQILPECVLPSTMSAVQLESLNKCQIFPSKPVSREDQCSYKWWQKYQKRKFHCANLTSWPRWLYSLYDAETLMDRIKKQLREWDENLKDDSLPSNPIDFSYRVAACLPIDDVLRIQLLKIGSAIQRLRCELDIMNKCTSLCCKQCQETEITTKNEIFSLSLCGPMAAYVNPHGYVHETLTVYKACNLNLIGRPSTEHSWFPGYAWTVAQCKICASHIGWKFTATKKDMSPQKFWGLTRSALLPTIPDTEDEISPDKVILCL

[6] = target: T1, Protein cereblon/Poly [ADP-ribose] polymerase 1; assay: PROTAC activity at CRBN/PARP1 in human L02 cells assessed as induction of PARP1 degradation incubated for 24 hrs by western blot analysis; type: cell-based
Target sequence in this assay (P09874 whole entry): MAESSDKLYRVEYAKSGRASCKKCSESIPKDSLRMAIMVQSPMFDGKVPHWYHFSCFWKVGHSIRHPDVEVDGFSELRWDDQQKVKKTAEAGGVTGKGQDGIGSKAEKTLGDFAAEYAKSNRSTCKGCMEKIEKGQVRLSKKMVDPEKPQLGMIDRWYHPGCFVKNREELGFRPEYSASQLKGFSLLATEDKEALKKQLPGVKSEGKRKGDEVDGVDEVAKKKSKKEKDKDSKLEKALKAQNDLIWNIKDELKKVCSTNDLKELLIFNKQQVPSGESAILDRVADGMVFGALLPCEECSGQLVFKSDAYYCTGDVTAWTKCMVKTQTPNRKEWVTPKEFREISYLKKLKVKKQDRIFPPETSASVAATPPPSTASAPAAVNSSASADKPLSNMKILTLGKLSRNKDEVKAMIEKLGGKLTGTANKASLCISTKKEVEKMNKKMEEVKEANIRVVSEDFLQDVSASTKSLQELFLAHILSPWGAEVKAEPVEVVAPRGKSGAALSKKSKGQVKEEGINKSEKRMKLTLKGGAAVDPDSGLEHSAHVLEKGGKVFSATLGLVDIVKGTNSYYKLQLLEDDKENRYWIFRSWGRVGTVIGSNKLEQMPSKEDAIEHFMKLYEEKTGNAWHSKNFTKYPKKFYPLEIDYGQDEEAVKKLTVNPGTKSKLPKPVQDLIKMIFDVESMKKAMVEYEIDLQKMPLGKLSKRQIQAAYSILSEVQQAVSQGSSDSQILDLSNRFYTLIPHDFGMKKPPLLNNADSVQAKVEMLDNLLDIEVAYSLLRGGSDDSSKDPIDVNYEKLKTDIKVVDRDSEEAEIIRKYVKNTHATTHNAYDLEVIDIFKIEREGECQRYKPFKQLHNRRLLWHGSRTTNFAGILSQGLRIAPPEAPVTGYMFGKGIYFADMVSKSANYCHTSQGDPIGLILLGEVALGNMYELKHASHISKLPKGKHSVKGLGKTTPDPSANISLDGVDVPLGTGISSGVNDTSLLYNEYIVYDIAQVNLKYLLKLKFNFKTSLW
Target sequence in this assay (Q96SW2 whole entry): as the sequence (Q96SW2 whole entry partner) above

[7] = test system: SW620/5-FU; assay: Antiproliferative activity against human SW620/5-FU cells assessed as cell growth inhibition incubated for 5 days by MTT assay; type: functional, cell-based; conditions: time 5.0 day
[8] = test system: MDA-MB-231; assay: Induction of cell cycle arrest in human MDA-MB-231 cells assessed as accumulation at S phase at 0.625 uM incubated for 24 hrs by propidium iodide staining based flow cytometry analysis (reference value: 37.88 %); type: functional
[9] = test system: MDA-MB-231; assay: Antiproliferative activity against human MDA-MB-231 cells assessed as colony growth inhibition at 0.625 to 10 uM incubated for 14 days by MTT assay; type: functional, cell-based; conditions: dose 0.625-10 µM, time 14.0 day, DDE = dose-dependent effect
[10] = test system: MDA-MB-231; assay: Induction of cell cycle arrest in human MDA-MB-231 cells assessed as accumulation at S phase at 5 uM incubated for 24 hrs by propidium iodide staining based flow cytometry analysis (reference value: 37.88 %); type: functional
[11] = test system: HeLa; assay: Antiproliferative activity against human HeLa cells assessed as cell growth inhibition incubated for 5 days by MTT assay; type: functional, cell-based; conditions: time 5.0 day
[12] = test system: MDA-MB-231; assay: Induction of cell cycle arrest in human MDA-MB-231 cells assessed as accumulation at G2/M phase at 0.312 uM incubated for 24 hrs by propidium iodide staining based flow cytometry analysis (reference value: 27.14 %); type: functional
[13] = test system: MDA-MB-231; assay: Induction of cell cycle arrest in human MDA-MB-231 cells assessed as accumulation at G0/G1 phase at 0.625 uM incubated for 24 hrs by propidium iodide staining based flow cytometry analysis (reference value: 32.62 %); type: functional
[14] = test system: HepG2; assay: Antiproliferative activity against human HepG2 cells assessed as cell growth inhibition incubated for 5 days by MTT assay; type: functional, cell-based; conditions: time 5.0 day
[15] = test system: MDA-MB-231; assay: Induction of cell cycle arrest in human MDA-MB-231 cells assessed as accumulation at S phase at 1.25 uM incubated for 24 hrs by propidium iodide staining based flow cytometry analysis (reference value: 37.88 %); type: functional
[16] = test system: MDA-MB-231; assay: Induction of cell cycle arrest in human MDA-MB-231 cells assessed as accumulation at G2/M phase at 1.25 uM incubated for 24 hrs by propidium iodide staining based flow cytometry analysis (reference value: 27.14 %); type: functional
[17] = test system: MDA-MB-231; assay: Induction of cell cycle arrest in human MDA-MB-231 cells assessed as accumulation at G0/G1 phase at 1.25 uM incubated for 24 hrs by propidium iodide staining based flow cytometry analysis (reference value: 32.62 %); type: functional
[18] = test system: MDA-MB-231; assay: Induction of cell cycle arrest in human MDA-MB-231 cells assessed as accumulation at G2/M phase at 2.5 uM incubated for 24 hrs by propidium iodide staining based flow cytometry analysis (reference value: 27.14 %); type: functional
[19] = test system: MDA-MB-231; assay: Induction of cell cycle arrest in human MDA-MB-231 cells assessed as accumulation at G0/G1 phase at 2.5 uM incubated for 24 hrs by propidium iodide staining based flow cytometry analysis (reference value: 32.62 %); type: functional
[20] = test system: MDA-MB-231; assay: Induction of cell cycle arrest in human MDA-MB-231 cells assessed as accumulation at G2/M phase at 5 uM incubated for 24 hrs by propidium iodide staining based flow cytometry analysis (reference value: 27.14 %); type: functional
[21] = test system: L02; assay: Antiproliferative activity against human L02 cells assessed as cell growth inhibition incubated for 5 days by MTT assay; type: toxicity, cell-based; conditions: l02, 120 h, time 5 day
[22] = test system: MDA-MB-231; assay: Induction of cell cycle arrest in human MDA-MB-231 cells assessed as accumulation at G2/M phase at 0.625 uM incubated for 24 hrs by propidium iodide staining based flow cytometry analysis (reference value: 27.14 %); type: functional
[23] = test system: MDA-MB-231; assay: Induction of cell cycle arrest in human MDA-MB-231 cells assessed as accumulation at S phase at 0.312 uM incubated for 24 hrs by propidium iodide staining based flow cytometry analysis (reference value: 37.88 %); type: functional
[24] = target: T1, Protein cereblon/Poly [ADP-ribose] polymerase 1; assay: PROTAC activity at CRBN/PARP1 in human MDA-MB-231 cells assessed as induction of PARP1 degradation at 1 uM incubated for 4 hrs by western blot analysis; type: cell-based
Target sequence in this assay (P09874 2-1014 limits assumed): as the sequence (P09874 2-1014 limits assumed) above
Target sequence in this assay (Q96SW2 whole entry partner): as the sequence (Q96SW2 whole entry partner) above

[25] = test system: MDA-MB-231; assay: Induction of cell cycle arrest in human MDA-MB-231 cells assessed as accumulation at G0/G1 phase at 0.312 uM incubated for 24 hrs by propidium iodide staining based flow cytometry analysis (reference value: 32.62 %); type: functional
[26] = test system: MDA-MB-231; assay: Induction of cell cycle arrest in human MDA-MB-231 cells assessed as accumulation at G0/G1 phase at 5 uM incubated for 24 hrs by propidium iodide staining based flow cytometry analysis (reference value: 32.62 %); type: functional
[27] = test system: MDA-MB-231; assay: Induction of cell morphological changes in human MDA-MB-231 at 1 uM incubated for 24 hrs by DAPI and Rhodamine staining based immunofluorescence assay; type: functional
[28] = test system: MDA-MB-231; assay: Induction of cell cycle arrest in human MDA-MB-231 cells assessed as accumulation at S phase at 2.5 uM incubated for 24 hrs by propidium iodide staining based flow cytometry analysis (reference value: 37.88 %); type: functional
[29] = test system: NCI-H2228; assay: Antiproliferative activity against human NCI-H2228 cells assessed as cell growth inhibition incubated for 5 days by MTT assay; type: functional, cell-based; conditions: time 5.0 day
[30] = test system: NCI-H3122; assay: Antiproliferative activity against human NCI-H3122 cells assessed as cell growth inhibition incubated for 5 days by MTT assay; type: functional, cell-based; conditions: time 5.0 day
[31] = test system: MV4-11; assay: Antiproliferative activity against human MV4-11 cells assessed as cell growth inhibition incubated for 5 days by MTT assay; type: functional, cell-based; conditions: time 5.0 day
[32] = target: T1, Protein cereblon/Poly [ADP-ribose] polymerase 1; assay: PROTAC activity at CRBN/PARP1 in human MDA-MB-231 cells assessed as induction of PARP1 degradation incubated for 24 hrs by western blot analysis; type: cell-based
Target sequence in this assay (P09874 whole entry): as the sequence (P09874 whole entry) above
Target sequence in this assay (Q96SW2 whole entry): as the sequence (Q96SW2 whole entry partner) above

[33] = target: Poly [ADP-ribose] polymerase 1 (Homo sapiens, UniProt P09874); assay: Binding affinity to PARP1 (unknown origin)
[34] = target: T1, Protein cereblon/Poly [ADP-ribose] polymerase 1; assay: PROTAC activity at CRBN/PARP1 in human MDA-MB-231 cells assessed as induction of PARP1 degradation at 0.12 to 4 uM incubated for 24 hrs by western blot analysis; type: cell-based; conditions: dose 0.12-4 µM, DDE = dose-dependent effect
Target sequence in this assay (P09874 2-1014 limits assumed): as the sequence (P09874 2-1014 limits assumed) above
Target sequence in this assay (Q96SW2 whole entry partner): as the sequence (Q96SW2 whole entry partner) above

Sequence of Poly [ADP-ribose] polymerase 1 (P09874 whole entry): as the sequence (P09874 whole entry) above

How did the IC50 [1] turn out when O=C1CCC(N2C(=O)c3cccc(NC(=O)CNCCC(=O)N4CCN(C(=O)c5cc(Cc6n[nH]c(=O)c7ccccc67)ccc5F)CC4)c3C2=O)C(=O)N1 (stereo not given) was run?
The IC50 was > 20 µM.

What about the IC50 [2] of the same molecule?
The IC50 was > 10 µM.

What about the IC50 [3] of the same molecule?
Its IC50 is > 20 µM.

What about the IC50 [4] of the same molecule?
The IC50 was > 10 µM.

With O=C1CCC(N2C(=O)c3cccc(NC(=O)CNCCCCCCCCCCCCC(=O)N4CCN(C(=O)c5cc(Cc6n[nH]c(=O)c7ccccc67)ccc5F)CC4)c3C2=O)C(=O)N1 (stereo not given) as the molecule, how does the IC50 [1] read?
The IC50 was 7.25 µM.

What about the IC50 [2] of the same molecule?
The IC50 was 0.24 µM.

What about the IC50 [3] of the same molecule?
Its IC50 is 5.03 µM.

What about the IC50 [4] of the same molecule?
Its IC50 is 0.076 µM.

How did the IC50 [1] turn out when O=C1CCC(N2C(=O)c3cccc(NC(=O)CNCCCCCCCC(=O)N4CCN(C(=O)c5cc(Cc6n[nH]c(=O)c7ccccc67)ccc5F)CC4)c3C2=O)C(=O)N1 (stereo not given) was run?
Its IC50 is 10.6 µM.

What about the IC50 [2] of the same molecule?
Its IC50 is 0.65 µM.

And the IC50 [3]?
The IC50 was 7.75 µM.

What about the Activity [5] of the same molecule?
The Activity was “Active”.

And the IC50 [4]?
The IC50 was 0.29 µM.

For O=C1CCC(N2C(=O)c3cccc(NC(=O)CNCCCCCCCCCCC(=O)N4CCN(C(=O)c5cc(Cc6n[nH]c(=O)c7ccccc67)ccc5F)CC4)c3C2=O)C(=O)N1 (stereo not given), which DC50 [6] is on record?
The DC50 was 3.2 µM.

What about the Activity [7] of the same molecule?
The Activity was “Active”.

And the Activity [8]?
Its Activity is 32.14%.

What about the Activity [9] of the same molecule?
Its Activity is “Dde”.

And the IC50 [1]?
The IC50 was 3.92 µM.

And the IC50 [2]?
Its IC50 is 0.077 µM.

What about the Activity [10] of the same molecule?
Its Activity is 30.47%.

What about the Activity [11] of the same molecule?
Its Activity is “Active”.

And the Activity [12]?
Its Activity is 28.41%.

And the Activity [13]?
The Activity was 36.68%.

And the Activity [14]?
Its Activity is “Active”.

And the Activity [15]?
The Activity was 30.97%.

What about the Activity [16] of the same molecule?
Its Activity is 35.58%.

What about the Activity [17] of the same molecule?
Its Activity is 32.03%.

And the Activity [18]?
Its Activity is 37.16%.

And the IC50 [3]?
The IC50 was 2.32 µM.

What about the Activity [19] of the same molecule?
Its Activity is 32.48%.

And the Activity [20]?
The Activity was 41.92%.

What about the Activity [21] of the same molecule?
The Activity was “Toxic”.

And the Activity [5]?
The Activity was “Active”.

And the Activity [22]?
Its Activity is 29.56%.

And the Activity [23]?
The Activity was 33.02%.

And the Activity [24]?
Its Activity is 90%.

What about the Activity [25] of the same molecule?
Its Activity is 37.11%.

What about the Activity [26] of the same molecule?
Its Activity is 25.81%.

And the Activity [27]?
Its Activity is “Active”.

What about the Activity [28] of the same molecule?
The Activity was 30.55%.

What about the Activity [29] of the same molecule?
The Activity was “Active”.

And the Activity [30]?
Its Activity is “Active”.

What about the Activity [31] of the same molecule?
The Activity was “Active”.

What about the DC50 [32] of the same molecule?
The DC50 was 0.053 µM.

What about the IC50 [33] of the same molecule?
Its IC50 is 0.00295 µM.

What about the IC50 [4] of the same molecule?
The IC50 was 0.031 µM.

For CN1C(=O)CCC(N2C(=O)c3cccc(NC(=O)CNCCCCCCCCCCC(=O)N4CCN(C(=O)c5cc(Cc6n[nH]c(=O)c7ccccc67)ccc5F)CC4)c3C2=O)C1=O (stereo not given), which IC50 [1] is on record?
The IC50 was 4.58 µM.

And the IC50 [2]?
The IC50 was 0.16 µM.

What about the Activity [34] of the same molecule?
Its Activity is “Dde”.

And the IC50 [3]?
The IC50 was 4.07 µM.

What about the IC50 [4] of the same molecule?
Its IC50 is 0.053 µM.

Which results are given for O=C1CCC(N2C(=O)c3cccc(NC(=O)CNCCCCCCCCCCCC(=O)N4CCN(C(=O)c5cc(Cc6n[nH]c(=O)c7ccccc67)ccc5F)CC4)c3C2=O)C(=O)N1 (stereo not given)?
IC50 [1]: 4.13 µM; IC50 [2]: 0.065 µM; IC50 [3]: 3.11 µM; IC50 [4]: 0.034 µM

Which IC50 [1] does the source give for O=C1CCC(N2C(=O)c3cccc(NC(=O)CNCCCCCCCCC(=O)N4CCN(C(=O)c5cc(Cc6n[nH]c(=O)c7ccccc67)ccc5F)CC4)c3C2=O)C(=O)N1 (stereo not given) here?
The IC50 was 7.54 µM.

What about the IC50 [2] of the same molecule?
Its IC50 is 0.59 µM.

And the IC50 [3]?
The IC50 was 6.08 µM.

What about the Activity [5] of the same molecule?
Its Activity is “Active”.

And the IC50 [4]?
The IC50 was 0.21 µM.
